{"source": "patent US20240207236A1", "about": "“COMPOUND FOR PREVENTING OR TREATING DIABETES” (ONCOCROSS CO., LTD., priority 2021, published 2024)", "type_in_all_cases": "in vivo, mice (C57BL/6)", "key": {"[1]": {"assay": "Body weight of mice in STZ-induced insulin-resistant diabetes model", "protocol": "(§1) STZ (Sigma-aldrich, S0130, 40 mg/kg b.w., in 0.1 M citrate buffer pH 4.5) was intraperitoneally administered to 9-week-old male mice (C57BL/6) once/1 day for 5 days to perform a first disease induction. After 7 weeks of the first induction, a second induction was performed using the same method as the first induction. For 5 days of an STZ administration period for the first induction, 10% sucrose was administered as drinking water. In addition, after 14 days of the second administration, blood sugar was confirmed to confirm the induction rate, and the induced animals were separated into groups. Experimental substances (R)-4-{(R)-1-[7-(3,4,5-trimethoxy-phenyl)-[1,6] naphthyridine-5-yloxy]-ethyl}pyrrolidine-2-one (BI-1002494) and cromolyn (OC-101) were administered orally into the stomach at 10 mL/kg using an oral administration syringe (sonde) before 16:00 daily for 12 weeks at a frequency of 7 days/week at doses shown in Table 1 below, respectively, and dexamethasone was orally administered as a positive control substance."}, "[2]": {"assay": "Feed intake of mice in STZ-induced insulin-resistant diabetes model", "set-up": "feed intake: unit not given here", "protocol": "as §1"}, "[3]": {"tested_on": "animal model of insulin-resistant diabetes", "assay": "Blood biochemistry, automated analyzer, at end of observation", "conditions": "for ALT, Mean / T-CHO, Mean / AST, Mean: 12 weeks, blood", "protocol": "as §1\n(§2) After the observation period for mice of each group in Example 1 was terminated, all surviving animals were fasted in the same manner as when measuring blood sugar, and then anesthetized by inhaling isoflurane, and blood was collected from the abdominal vena cava through laparotomy. After the blood collection was completed, the veins and arteries were cut under anesthesia and exsanguinated. The collected blood was left at room temperature for 30 minutes or more and then centrifuged at 3,000 rpm for 20 minutes. Thereafter, glucose, blood urea nitrogen (BUN), and creatinine were analyzed using an automated blood biochemistry analyzer (Hitachi 3100, Hitachi Co. Ltd., Japan). Indoxyl sulfate (a substance that was mainly produced in the intestines to cause kidney damage, and a substance that caused end-stage renal failure by advancing kidney function damage in patients with renal failure during hemodialysis) was analyzed using LC MS/MS. In addition, blood insulin was analyzed according to a method represented by a commercial Mouse Insulin ELISA KIT (#AKRIN-011T, Sibayagi Co. Ltd., Japan)."}, "[4]": {"tested_on": "animal model of insulin-resistant diabetes", "assay": "Blood insulin (Mouse Insulin ELISA) and HOMA-IR", "protocol": "as §1, §2"}, "[5]": {"conditions": "after induction of diabetic disease, 12.5-50 mg/kg"}}, "data": [{"smiles": "COc1cc(-c2cc3ncccc3c(O[C@H](C)[C@H]3CNC(=O)C3)n2)cc(OC)c1OC", "note": "[BI-1002494, (R)-4-{(R)-1-[7-(3,4,5-trimethoxy-phenyl)-[1,6]naphthyridine-5-yloxy]-ethyl}pyrrolidine-2-one]", "values": [{"measurement": "body weight, Mean", "setting": "[1]; 12.5 mg/kg/day oral, week 0", "value": 24, "unit": "g"}, {"measurement": "body weight, Mean", "setting": "[1]; 12.5 mg/kg/day oral, week 1", "value": 23.7, "unit": "g"}, {"measurement": "body weight, Mean", "setting": "[1]; 12.5 mg/kg/day oral, week 2", "value": 23, "unit": "g"}, {"measurement": "body weight, Mean", "setting": "[1]; 12.5 mg/kg/day oral, week 3", "value": 24.1, "unit": "g"}, {"measurement": "body weight, Mean", "setting": "[1]; 12.5 mg/kg/day oral, week 4", "value": 24.3, "unit": "g"}, {"measurement": "body weight compared to the disease control group", "setting": "[1]; 12.5 mg/kg, after week 5 of administration", "value": "statistically significantly increased"}, {"measurement": "body weight, Mean", "setting": "[1]; 25 mg/kg/day oral, week 0", "value": 23.6, "unit": "g"}, {"measurement": "body weight, Mean", "setting": "[1]; 25 mg/kg/day oral, week 1", "value": 23.5, "unit": "g"}, {"measurement": "body weight, Mean", "setting": "[1]; 25 mg/kg/day oral, week 2", "value": 23.7, "unit": "g"}, {"measurement": "body weight, Mean", "setting": "[1]; 25 mg/kg/day oral, week 3", "value": 23.9, "unit": "g"}, {"measurement": "body weight, Mean", "setting": "[1]; 25 mg/kg/day oral, week 4", "value": 23.9, "unit": "g"}, {"measurement": "body weight, Mean", "setting": "[1]; 25 mg/kg/day oral, week 5", "value": 24, "unit": "g"}, {"measurement": "body weight, Mean", "setting": "[1]; 25 mg/kg/day oral, week 6", "value": 23.9, "unit": "g"}, {"measurement": "body weight, Mean", "setting": "[1]; 25 mg/kg/day oral, week 7", "value": 24, "unit": "g"}, {"measurement": "body weight compared to the disease control group", "setting": "[1]; 25 mg/kg, after week 8", "value": "statistically significantly increased"}, {"measurement": "body weight, Mean", "setting": "[1]; 50 mg/kg/day oral, week 0", "value": 23.9, "unit": "g"}, {"measurement": "body weight, Mean", "setting": "[1]; 50 mg/kg/day oral, week 2", "value": 23.8, "unit": "g"}, {"measurement": "body weight, Mean", "setting": "[1]; 50 mg/kg/day oral, week 3", "value": 23.8, "unit": "g"}, {"measurement": "body weight, Mean", "setting": "[1]; 50 mg/kg/day oral, week 4", "value": 23.8, "unit": "g"}, {"measurement": "body weight, Mean", "setting": "[1]; 50 mg/kg/day oral, week 5", "value": 23.6, "unit": "g"}, {"measurement": "body weight, Mean", "setting": "[1]; 50 mg/kg/day oral, week 6", "value": 23.8, "unit": "g"}, {"measurement": "body weight, Mean", "setting": "[1]; 50 mg/kg/day oral, week 7", "value": 24, "unit": "g"}, {"measurement": "body weight compared to the disease control group", "setting": "[1]; 50 mg/kg, after week 8", "value": "statistically significantly increased"}, {"measurement": "feed intake compared to the disease control group", "setting": "[2]; 12.5 mg/kg, after week 4 of administration", "value": "statistically significantly decreased"}, {"measurement": "feed intake", "setting": "[2]; 25 mg/kg/day oral, week 1", "value": 5.60}, {"measurement": "feed intake", "setting": "[2]; 25 mg/kg/day oral, week 2", "value": 5.58}, {"measurement": "feed intake", "setting": "[2]; 25 mg/kg/day oral, week 3", "value": 5.26}, {"measurement": "feed intake", "setting": "[2]; 25 mg/kg/day oral, week 4", "value": 4.99}, {"measurement": "feed intake", "setting": "[2]; 25 mg/kg/day oral, week 5", "value": 5.15}, {"measurement": "feed intake", "setting": "[2]; 25 mg/kg/day oral, week 7", "value": 5.04}, {"measurement": "feed intake", "setting": "[2]; 25 mg/kg/day oral, week 8", "value": 4.95}, {"measurement": "feed intake", "setting": "[2]; 25 mg/kg/day oral, week 9", "value": 4.62}, {"measurement": "feed intake", "setting": "[2]; 25 mg/kg/day oral, week 10", "value": 4.63}, {"measurement": "feed intake compared to the disease control group", "setting": "[2]; 25 mg/kg, after week 6 of administration", "value": "statistically significantly decreased"}, {"measurement": "feed intake", "setting": "[2]; 50 mg/kg/day oral, week 1", "value": 5.74}, {"measurement": "feed intake", "setting": "[2]; 50 mg/kg/day oral, week 4", "value": 5.14}, {"measurement": "feed intake", "setting": "[2]; 50 mg/kg/day oral, week 7", "value": 5.11}, {"measurement": "feed intake", "setting": "[2]; 50 mg/kg/day oral, week 9", "value": 4.30}, {"measurement": "feed intake", "setting": "[2]; 50 mg/kg/day oral, week 10", "value": 4.14}, {"measurement": "feed intake compared to the disease control group", "setting": "[2]; 50 mg/kg, after week 8 of administration", "value": "statistically significantly decreased"}, {"measurement": "ALT, Mean", "setting": "[3]; 12.5 mg/kg/day oral", "value": 45.7, "unit": "L⁻¹"}, {"measurement": "T-CHO, Mean", "setting": "[3]; 12.5 mg/kg/day oral", "value": 151.6, "unit": "dL⁻¹"}, {"measurement": "ALT, Mean", "setting": "[3]; 25 mg/kg/day oral", "value": 30.9, "unit": "L⁻¹"}, {"measurement": "AST, Mean", "setting": "[3]; 25 mg/kg/day oral", "value": 76.8, "unit": "L⁻¹"}, {"measurement": "T-CHO, Mean", "setting": "[3]; 25 mg/kg/day oral", "value": 125.0, "unit": "dL⁻¹"}, {"measurement": "ALT, Mean", "setting": "[3]; 50 mg/kg/day oral", "value": 45.8, "unit": "L⁻¹"}, {"measurement": "AST, Mean", "setting": "[3]; 50 mg/kg/day oral", "value": 83.4, "unit": "L⁻¹"}, {"measurement": "T-CHO, Mean", "setting": "[3]; 50 mg/kg/day oral", "value": 138.7, "unit": "dL⁻¹"}, {"measurement": "dose dependence of GLU reduction", "setting": "[3]; 12.5, 25, 50 mg/kg", "value": "clear dose dependence"}, {"measurement": "blood glucose, summary", "setting": "[3]; [5]", "value": "decreased in a dose-dependent manner"}, {"measurement": "GLU, statistical comparison", "setting": "[3]; all administered groups (12.5, 25, 50 mg/kg)", "value": "statistically significantly reduced"}, {"measurement": "HOMA-IR compared with the disease control group", "setting": "[4]; 25 mg/kg", "value": "statistically significantly reduced"}, {"measurement": "HOMA-IR compared with the disease control group", "setting": "[4]; 50 mg/kg", "value": "statistically significantly reduced"}, {"measurement": "insulin resistance (HOMA-IR), summary", "setting": "[4]; [5]", "value": "decreased in a dose-dependent manner"}]}]}
